Data taken from patent US12195427B2, “MASP-2 inhibitors and methods of use” (priority 2018, dated 2025).
Counter-ions that a name gives are not always drawn.

Target: MASP-2 CCP2-SP (Homo sapiens (Human), UniProt O00187)
Experiment: MASP-2 co-crystallization, X-ray crystallography and structure analysis (H-bonds, van der Waals contacts);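 as to Ligand-pharmacophore element distance, pharmacophore element C2: distance from averaged pharmacophore element to bound ligand; missing value means element absent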;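 as to Ligand-pharmacophore element distance, pharmacophore element C3: distance from averaged pharmacophore element to bound ligand; missing value means element absent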;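 as to Ligand-pharmacophore element distance, pharmacophore element C4: distance from averaged pharmacophore element to bound ligand; missing value means element absent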;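 as to Ligand-pharmacophore element distance, pharmacophore element C5: distance from averaged pharmacophore element to bound ligand; missing value means element absent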
Parameters: van der Waals contact distance, MASP-2 HIS 483 atom CD2 / van der Waals contact distance, MASP-2 HIS 483 atom NE2 / van der Waals contact distance, SER 654 C to compound atom / van der Waals contact distance, SER 654 O to compound atom / van der Waals contact distance, TRP 655 C to compound atom / van der Waals contact distance, MASP-2 GLY 528 atom CA / van der Waals contact distance TRP 655 atom CZ3 / van der Waals contact distance TRP 655 atom N / van der Waals contact distance TRP 655 atom CE3 / van der Waals contact distance GLY 656 atom C / van der Waals contact distance GLY 656 atom CA / van der Waals contact distance GLY 656 atom O / van der Waals contact distance, MASP-2 TYR 607 atom CD1 / van der Waals contact distance, MASP-2 PRO 606 atom O / d(C3,CA1) / d(CA1,N1)2 / d(H4,O1) / d(H4,O2) / d(O1,O2) / d(CA1,O2) / d(CA6,O1) / d(CA6,O2) / d(CA1,C5) / d(O2,H3) / d(N2,C2) / d(CA5,N2) / d(N2,C4) / d(N2,C6) / d(N2,CA3) / d(N2,O3) / d(O4,H2): unit not given beside the values
Settings: for H-bond distance to MASP-2 ASP 627 atom OD2: ASP 627 OD2; for H-bond distance to MASP-2 GLY 656 atom N: GLY 656 N; for H-bond distance to MASP-2 GLY 656 atom O: GLY 656 O; for H-bond distance to MASP-2 SER 654 atom O: SER 654 O; for H-bond distance to MASP-2 SER 657 atom O: SER 657 O; for van der Waals contact distance, TRP 655 C to compound atom / van der Waals contact distance, TRP 655 CA to compound atom: Table A2-12; for van der Waals contact distance TRP 655 atom N: MASP-2 TRP 655 N; for H-bond distance to MASP-2 SER 628 atom O: SER 628 O; for van der Waals contact distance SER 657 atom C: MASP-2 SER 657 C, columns c12-c13 (inferred)
Summary of the method: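 Inhibitor complexes were obtained by soaking crystals of E. coli-derived human MASP-2 CCP2-SP. Synchrotron diffraction at 1.0 wavelength, molecular replacement and partial refinement gave the models; one pose per ligand was chosen for contact analysis.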

[1] = Table A5-1 pharmacophore: distance between elements, S2/S1 region
[2] = Table A5-2 pharmacophore distance, S3/S4 region
[3] = Table A7-1, between pharmacophore elements of the bound compound
[4] = Table A8-6, nearest protein atom in cell to the left

MASP-2 CCP2-SP, sequence (O00187 445-686): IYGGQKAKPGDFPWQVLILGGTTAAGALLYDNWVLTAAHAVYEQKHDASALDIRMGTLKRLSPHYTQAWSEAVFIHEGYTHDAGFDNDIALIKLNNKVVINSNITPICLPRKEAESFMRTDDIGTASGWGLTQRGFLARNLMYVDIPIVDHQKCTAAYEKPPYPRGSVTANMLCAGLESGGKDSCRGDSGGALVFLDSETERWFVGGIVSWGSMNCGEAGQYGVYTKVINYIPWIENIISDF
MASP-2 CCP2-SP, sequence (O00187 364-432 partner): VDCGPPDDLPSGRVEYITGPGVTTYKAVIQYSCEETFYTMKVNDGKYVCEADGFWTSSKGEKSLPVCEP

## C[C@H](NC(=O)[C@H]1C[C@H](c2ccccc2)CN1)C(=O)NCc1ccc(N)nc1 [compound 1012]
Table A1 (H-Bonds)
  H-bond distance to MASP-2 ASP 627 atom OD2: 3.18
  H-bond distance to MASP-2 GLY 656 atom N: 3.18
  H-bond distance to MASP-2 GLY 656 atom O: 2.77
  H-bond distance to MASP-2 SER 654 atom O: 2.93
  H-bond distance to MASP-2 SER 657 atom O: 2.89
Table A2-1
  van der Waals contact distance, MASP-2 HIS 483 atom CD2: 3.63
Table A2-3
  van der Waals contact distance, MASP-2 PHE 529 atom CE1: 3.75
  van der Waals contact distance, MASP-2 PHE 529 atom CE2: 3.78
Table A2-4
  van der Waals contact distance, MASP-2 PRO 606 atom CG: 3.85
Table A2-5: TYR 607 (CE1, CE2, OH), PRO 608 (CD, CG), SER 611 (CA)
  van der Waals contact distance, MASP-2 amino acid atom to compound atom: 3.88
Table A2-6: SER 611 (CB, OG), ASP 627 (CG, OD1, OD2), SER 628 (C, CA)
  van der Waals contact distance, MASP-2 amino acid atom to compound atom: 3.6
Table A2-7: SER 628 (CB, O, OG)
  van der Waals contact distance, MASP-2 amino acid atom to compound atom: 3.53
Table A2-9, ARG 630, AA atoms CG, CZ
  van der Waals contact distance, MASP-2 amino acid atom to compound atom: 3.83
  van der Waals contact distance, TRP 655 C to compound atom: 3.8
  van der Waals contact distance, TRP 655 CA to compound atom: 3.36
Table A2-13, MASP-2 GLY 656 CA
  van der Waals contact distance GLY 656 atom CA: 3.73

## C[C@H](NC(=O)[C@H](N)CCc1ccccc1)C(=O)NCc1cc(Cl)ccc1O [compound 1031, (R)-2-Amino-N—((S)-1-((5-chloro-2-hydroxybenzyl)amino)-1-oxopropan-2-yl)-4-phenylbutanamide Hydrochloride]
Table A1 (H-Bonds), ARG 630 NH1
  H-bond distance to MASP-2 ARG 630 atom NH1 (second bond): 2.83
Table A1 (H-Bonds)
  H-bond distance to MASP-2 GLY 656 atom O: 2.67
Table A2-1
  van der Waals contact distance, MASP-2 HIS 483 atom CD2: 3.57
  van der Waals contact distance, MASP-2 HIS 483 atom CE1: 3.62
  van der Waals contact distance, MASP-2 HIS 483 atom NE2: 3.17
Table A2-3
  van der Waals contact distance, MASP-2 PHE 529 atom CE2: 3.75
Table A2-4
  van der Waals contact distance, MASP-2 TYR 607 atom CD1: 3.85
Table A2-9 second part, ARG 630, AA atoms N, NE, NH1, Hydrochloride
  van der Waals contact distance, MASP-2 amino acid atom to compound atom: 3.34
Table A2-11
  van der Waals contact distance, VAL 653 CG1 to compound atom: 3.58
Table A2-11, Hydrochloride
  van der Waals contact distance, SER 654 C to compound atom: 3.56
Hydrochloride
  van der Waals contact distance, TRP 655 C to compound atom: 3.26
  van der Waals contact distance, TRP 655 CA to compound atom: 3.64
Table A2-13, MASP-2 GLY 656 C
  van der Waals contact distance GLY 656 atom C: 3.61
Table A2-13, MASP-2 TRP 655 CE3, compound atom in line below
  van der Waals contact distance TRP 655 atom CE3: 3.49
Table A2-13
  van der Waals contact distance TRP 655 atom N: 3.28

## N=C(N)c1ccc(CNC(=O)[C@@H]2CCN2C(=O)[C@H]2Cc3ccccc3CN2)cc1 [compound 1034]
Table A1 (H-Bonds), ASP 627 OD1
  H-bond distance to MASP-2 ASP 627 atom OD1: 2.9
Table A1 (H-Bonds), GLN 665 OE1
  H-bond distance to MASP-2 GLN 665 atom OE1: 3.26
Table A1 (H-Bonds), GLN 665 OE1, second column
  H-bond distance to MASP-2 GLN 665 atom OE1 (second bond): 2.8
Table A1 (H-Bonds)
  H-bond distance to MASP-2 GLY 656 atom N: 2.91
  H-bond distance to MASP-2 SER 628 atom O: 2.91
  H-bond distance to MASP-2 SER 654 atom O: 2.99
  H-bond distance to MASP-2 SER 657 atom O: 2.75
Table A2-4
  van der Waals contact distance, MASP-2 PRO 606 atom CG: 3.71
Table A2-10, ARG 630 NH2, GLY 631, ASP 632, SER 633
  van der Waals contact distance, MASP-2 amino acid atom to compound atom: 3.11
Table A2-11
  van der Waals contact distance, SER 654 C to compound atom: 3.83
  van der Waals contact distance, TRP 655 CA to compound atom: 3.42
Table A2-13, MASP-2 TRP 655 O
  van der Waals contact distance TRP 655 atom O: 3.77
Table A2-14
  van der Waals contact distance SER 657 atom C: 3.51
Table A4-1, element C2
  Ligand-pharmacophore element distance, pharmacophore element C2: 2.4
Table A4-1, element C3
  Ligand-pharmacophore element distance, pharmacophore element C3: 0
Table A4-1, element C4
  Ligand-pharmacophore element distance, pharmacophore element C4: 0
Table A4-1, element C5
  Ligand-pharmacophore element distance, pharmacophore element C5: 0
Table A4-1, element C6
  Ligand-pharmacophore element distance, pharmacophore element C6: 0
Table A4-1, element C7
  Ligand-pharmacophore element distance, pharmacophore element C7: 0
Table A4-1, element CA1
  Ligand-pharmacophore element distance, pharmacophore element CA1: 0.28
Table A4-1, element CA2
  Ligand-pharmacophore element distance, pharmacophore element CA2: 0
Table A4-1, element CA3
  Ligand-pharmacophore element distance, pharmacophore element CA3: 0
Table A4-1, element CA4
  Ligand-pharmacophore element distance, pharmacophore element CA4: 0
Table A4-1, element CA5
  Ligand-pharmacophore element distance, pharmacophore element CA5: 0.98
Table A4-1, element CA6
  Ligand-pharmacophore element distance, pharmacophore element CA6: 0
Table A4-2, element H1
  Ligand-pharmacophore element distance, pharmacophore element H1: 0
Table A4-2, element H2
  Ligand-pharmacophore element distance, pharmacophore element H2: 0
Table A4-2, element H3
  Ligand-pharmacophore element distance, pharmacophore element H3: 1.08
Table A4-2, element H4
  Ligand-pharmacophore element distance, pharmacophore element H4: 3.56
Table A4-2, element N1
  Ligand-pharmacophore element distance, pharmacophore element N1: 1.87
Table A4-2, element N2
  Ligand-pharmacophore element distance, pharmacophore element N2: 0.86
Table A4-2, element O1
  Ligand-pharmacophore element distance, pharmacophore element O1: 0.39
Table A4-2, element O2
  Ligand-pharmacophore element distance, pharmacophore element O2: 0.49
Table A4-2, element O3
  Ligand-pharmacophore element distance, pharmacophore element O3: 0
Table A4-2, element O4
  Ligand-pharmacophore element distance, pharmacophore element O4: 0
[1]
  d(CA1,N1): 3.64
  d(CA1,O1): 4.35
  d(CA1,O2): 4.19
  d(H4,O1): 4.86
  d(H4,O2): 4.31
  d(O1,O2): 3.48
[2]
  d(CA5,N2): 3.72
  d(N2,C2): 2.26
  d(O2,H3): 2.74
  d(O2,N2): 3.03
Table A6-1 pharmacophore angle
  a(CA1, O1, O2): 111.64
  a(O1, O2, H4): 135.95
Table A6-1 pharmacophore angle, all compounds with protonatable center N1 except Methyl-amino-pyridine
  A(N1, CA1, O1) a): 160.69
Table A6-2 pharmacophore angle
  a(O1, O2, H3): 135.88
  a(O1, O2, N2): 137.69
  a(O2, N2, C2): 100.68
[3]
  Pharmacophore torsion angle a(H4, O1, O2, H3): 93.33
  Pharmacophore torsion angle a(H4, O1, O2, N2): 142.83
  Pharmacophore torsion angle a(N1, CA1, O2, H4): −127.27
  Pharmacophore torsion angle a(O1, H4, O2, CA1): −61.32
  Pharmacophore torsion angle a(O1, O2, N2, C2): 68.39
Table A7-2, between pharmacophore elements of the bound compound
  Pharmacophore torsion angle a(O1, O2, N2, CA5): 137.68
Table A8-6, 6th residue column, nearest protein atom in cell to the left
  Pharmacophore protein distance to MET_658 (first MET_658 column): 2.86
Table A8-6, 9th residue column, nearest protein atom in cell to the left
  Pharmacophore protein distance to MET_658 (second MET_658 column): 3.46
[4]
  Pharmacophore protein distance to GLY_528: 3.79
  Pharmacophore protein distance to PHE_529: 3.09
  Pharmacophore protein distance to PRO_608: 2.97
  Pharmacophore protein distance to SER_611: 3.32
Table A8-6, pharmacophore elements C6, CA3, O3, H1, nearest protein atom in cell to the left
  Pharmacophore protein distance to TRP_655: 3.27

## C[C@H](NC(=O)[C@H]1C[C@H](c2ccccc2)CN1)C(=O)NCc1ccc(C(=N)N)cc1 [compound 1036]
Table A1 (H-Bonds)
  H-bond distance to MASP-2 ASP 627 atom OD2: 2.96
  H-bond distance to MASP-2 GLY 656 atom N: 3.22
  H-bond distance to MASP-2 SER 628 atom O: 2.9
  H-bond distance to MASP-2 SER 657 atom O: 2.93
Table A2-1
  van der Waals contact distance, MASP-2 HIS 483 atom CD2: 3.81
Table A2-3
  van der Waals contact distance, MASP-2 PHE 529 atom CE2: 3.72
Table A2-13
  van der Waals contact distance TRP 655 atom N: 3.58
Table A2-14, MASP-2 GLY 656 O
  van der Waals contact distance GLY 656 atom O: 3.55
Table A2-14
  van der Waals contact distance SER 657 atom C: 3.57
